{"source": "ChEMBL document CHEMBL4831514", "about": "“Novel betulin dicarboxylic acid ester derivatives as potent antiviral agents: Design, synthesis, biological evaluation, structure-activity relationship and in-silico study” (Eur J Med Chem, 2021)", "note": "Calls of active or inactive are those of the source. The calls are words filed in the database; no cut-off is given here."}
{"test_system": "Human alphaherpesvirus 1", "experiment": "Antiviral activity against Human herpesvirus 1 MacIntyre infected in A549 cells assessed as reduction in virus titer preincubated for 24 hrs followed by viral infection and measured after 72 hrs by microscopic analysis", "assay_type": "functional, organism-based", "settings": "not given"}
{"smiles": "C=C(C)[C@@H]1CC[C@]2(COC(=O)/C=C(\\C)C(=O)N3CCOCC3)CC[C@]3(C)[C@H](CC[C@@H]4[C@@]5(C)CC[C@H](O)C(C)(C)[C@@H]5CC[C@]43C)[C@@H]12", "Activity": "inactive"}
{"smiles": "C=C(C)[C@@H]1CC[C@]2(COC(=O)CCCCCCCCCC(=O)O)CC[C@]3(C)[C@H](CC[C@@H]4[C@@]5(C)CC[C@H](O)C(C)(C)[C@@H]5CC[C@]43C)[C@@H]12", "Activity": "inactive"}
{"test_system": "Enterovirus E", "experiment": "(§1) Potency index, ratio of ribavirin EC50 to test compound EC50 for antiviral activity against Enterovirus E LCR-4 infected in A549 cells assessed as reduction in virus titer treated 1 hr post viral infection followed by replacement with fresh medium with compounds and measured after 72 hrs by MTT assay", "assay_type": "functional", "settings": "not given"}
{"smiles": "C=C(C)[C@@H]1CC[C@]2(COC(=O)/C=C(\\C)C(=O)N3CCOCC3)CC[C@]3(C)[C@H](CC[C@@H]4[C@@]5(C)CC[C@H](O)C(C)(C)[C@@H]5CC[C@]43C)[C@@H]12", "Ratio EC50": 3}
{"smiles": "C=C(C)[C@@H]1CC[C@]2(COC(=O)CCCCCCCCCC(=O)O)CC[C@]3(C)[C@H](CC[C@@H]4[C@@]5(C)CC[C@H](O)C(C)(C)[C@@H]5CC[C@]43C)[C@@H]12", "Ratio EC50": 10}
{"test_system": "not listed separately", "experiment": "(§2) Cytotoxicity against human A549 cells assessed as reduction in cell viability incubated for 48 hrs by MTT assay", "assay_type": "cell-based", "settings": "A549 cells", "units": {"CC50 at 48 h": "µM"}}
{"smiles": "NC(=O)c1ncn([C@@H]2O[C@H](CO)[C@@H](O)[C@H]2O)n1", "note": "[RIBAVIRIN]", "CC50 at 48 h": 7610}
{"smiles": "C=C(C)[C@@H]1CC[C@]2(COC(=O)/C=C(\\C)C(=O)N3CCOCC3)CC[C@]3(C)[C@H](CC[C@@H]4[C@@]5(C)CC[C@H](O)C(C)(C)[C@@H]5CC[C@]43C)[C@@H]12", "CC50 at 48 h": 114}
{"smiles": "C=C(C)[C@@H]1CC[C@]2(COC(=O)CCCCCCCCCC(=O)O)CC[C@]3(C)[C@H](CC[C@@H]4[C@@]5(C)CC[C@H](O)C(C)(C)[C@@H]5CC[C@]43C)[C@@H]12", "CC50 at 48 h": 29.4}
{"test_system": "A549", "experiment": "as §2", "assay_type": "cell-based", "settings": "a549, 48 h", "units": {"CC20": "µM"}}
{"smiles": "NC(=O)c1ncn([C@@H]2O[C@H](CO)[C@@H](O)[C@H]2O)n1", "note": "[RIBAVIRIN]", "CC20": 409.84}
{"smiles": "C=C(C)[C@@H]1CC[C@]2(COC(=O)/C=C(\\C)C(=O)N3CCOCC3)CC[C@]3(C)[C@H](CC[C@@H]4[C@@]5(C)CC[C@H](O)C(C)(C)[C@@H]5CC[C@]43C)[C@@H]12", "CC20": 37.82}
{"smiles": "C=C(C)[C@@H]1CC[C@]2(COC(=O)CCCCCCCCCC(=O)O)CC[C@]3(C)[C@H](CC[C@@H]4[C@@]5(C)CC[C@H](O)C(C)(C)[C@@H]5CC[C@]43C)[C@@H]12", "CC20": 5.09}
{"test_system": "MDCK", "experiment": "Cytotoxicity against MDCK cells assessed as reduction in cell viability incubated for 72 hrs by MTT assay", "assay_type": "cell-based, Canis lupus familiaris", "settings": "dog, mdck, 72 h", "units": {"CC20": "µM"}}
{"smiles": "C=C(C)[C@@H]1CC[C@]2(COC(=O)/C=C(\\C)C(=O)N3CCOCC3)CC[C@]3(C)[C@H](CC[C@@H]4[C@@]5(C)CC[C@H](O)C(C)(C)[C@@H]5CC[C@]43C)[C@@H]12", "CC20": 37.82}
{"smiles": "C=C(C)[C@@H]1CC[C@]2(COC(=O)CCCCCCCCCC(=O)O)CC[C@]3(C)[C@H](CC[C@@H]4[C@@]5(C)CC[C@H](O)C(C)(C)[C@@H]5CC[C@]43C)[C@@H]12", "CC20": 10.2}
{"test_system": "not listed separately", "experiment": "as §1, with “Selectivity” for “Potency”, “CC50 for cytotoxicity against human A549 cells” for “ribavirin EC50”, “to” for “to test compound”", "assay_type": "toxicity, cell-based", "settings": "read-out: Selectivity Index"}
{"smiles": "NC(=O)c1ncn([C@@H]2O[C@H](CO)[C@@H](O)[C@H]2O)n1", "note": "[RIBAVIRIN]", "selectivity ratio at 72 h": 74.3}
{"smiles": "C=C(C)[C@@H]1CC[C@]2(COC(=O)/C=C(\\C)C(=O)N3CCOCC3)CC[C@]3(C)[C@H](CC[C@@H]4[C@@]5(C)CC[C@H](O)C(C)(C)[C@@H]5CC[C@]43C)[C@@H]12", "selectivity ratio at 72 h": 3}
{"smiles": "C=C(C)[C@@H]1CC[C@]2(COC(=O)CCCCCCCCCC(=O)O)CC[C@]3(C)[C@H](CC[C@@H]4[C@@]5(C)CC[C@H](O)C(C)(C)[C@@H]5CC[C@]43C)[C@@H]12", "selectivity ratio at 72 h": 2.9}
{"test_system": "Human adenovirus 5", "experiment": "Antiviral activity against Human adenovirus 5 Adenoid 75 infected in A549 cells assessed as inhibition of viral adsorption at early stage of replication treated for 1 hr during viral infection followed by replacement with fresh medium and measured after 72 hrs by MTT assay", "assay_type": "functional, organism-based", "settings": "not given"}
{"smiles": "NC(=O)c1ncn([C@@H]2O[C@H](CO)[C@@H](O)[C@H]2O)n1", "note": "[RIBAVIRIN]", "Activity": "inactive"}
{"smiles": "C=C(C)[C@@H]1CC[C@]2(COC(=O)/C=C(\\C)C(=O)N3CCOCC3)CC[C@]3(C)[C@H](CC[C@@H]4[C@@]5(C)CC[C@H](O)C(C)(C)[C@@H]5CC[C@]43C)[C@@H]12", "Activity": "inactive"}
{"smiles": "C=C(C)[C@@H]1CC[C@]2(COC(=O)CCCCCCCCCC(=O)O)CC[C@]3(C)[C@H](CC[C@@H]4[C@@]5(C)CC[C@H](O)C(C)(C)[C@@H]5CC[C@]43C)[C@@H]12", "Activity": "inactive"}
{"test_system": "Human alphaherpesvirus 1", "experiment": "Antiviral activity against Human herpesvirus-1 MacIntyre infected in A549 cells assessed as inhibition of viral adsorption at early stage of replication treated for 1 hr during viral infection followed by replacement with fresh medium and measured after 48 hrs by MTT assay", "assay_type": "functional, organism-based", "settings": "not given"}
{"smiles": "NC(=O)c1ncn([C@@H]2O[C@H](CO)[C@@H](O)[C@H]2O)n1", "note": "[RIBAVIRIN]", "Activity": "inactive"}
{"smiles": "C=C(C)[C@@H]1CC[C@]2(COC(=O)/C=C(\\C)C(=O)N3CCOCC3)CC[C@]3(C)[C@H](CC[C@@H]4[C@@]5(C)CC[C@H](O)C(C)(C)[C@@H]5CC[C@]43C)[C@@H]12", "Activity": "inactive"}
{"smiles": "C=C(C)[C@@H]1CC[C@]2(COC(=O)CCCCCCCCCC(=O)O)CC[C@]3(C)[C@H](CC[C@@H]4[C@@]5(C)CC[C@H](O)C(C)(C)[C@@H]5CC[C@]43C)[C@@H]12", "Activity": "inactive"}
{"test_system": "Human adenovirus 5", "experiment": "Antiviral activity against Human adenovirus 5 Adenoid 75 infected in A549 cells assessed as reduction in virus titer preincubated for 24 hrs followed by viral infection and measured after 72 hrs by microscopic analysis", "assay_type": "functional, organism-based", "settings": "not given"}
{"smiles": "C=C(C)[C@@H]1CC[C@]2(COC(=O)/C=C(\\C)C(=O)N3CCOCC3)CC[C@]3(C)[C@H](CC[C@@H]4[C@@]5(C)CC[C@H](O)C(C)(C)[C@@H]5CC[C@]43C)[C@@H]12", "Activity": "inactive"}
{"smiles": "C=C(C)[C@@H]1CC[C@]2(COC(=O)CCCCCCCCCC(=O)O)CC[C@]3(C)[C@H](CC[C@@H]4[C@@]5(C)CC[C@H](O)C(C)(C)[C@@H]5CC[C@]43C)[C@@H]12", "Activity": "inactive"}
{"test_system": "Enterovirus E", "experiment": "Antiviral activity against Enterovirus E LCR-4 infected in A549 cells assessed as reduction in virus titer treated 1 hr post viral infection followed by replacement with fresh medium with compounds and measured after 72 hrs by MTT assay", "assay_type": "functional, organism-based", "settings": "LCR-4, A549", "units": {"EC50": "µM"}}
{"smiles": "NC(=O)c1ncn([C@@H]2O[C@H](CO)[C@@H](O)[C@H]2O)n1", "note": "[RIBAVIRIN]", "EC50": 102}
{"smiles": "C=C(C)[C@@H]1CC[C@]2(COC(=O)/C=C(\\C)C(=O)N3CCOCC3)CC[C@]3(C)[C@H](CC[C@@H]4[C@@]5(C)CC[C@H](O)C(C)(C)[C@@H]5CC[C@]43C)[C@@H]12", "EC50": 37.8}
{"smiles": "C=C(C)[C@@H]1CC[C@]2(COC(=O)CCCCCCCCCC(=O)O)CC[C@]3(C)[C@H](CC[C@@H]4[C@@]5(C)CC[C@H](O)C(C)(C)[C@@H]5CC[C@]43C)[C@@H]12", "EC50": 10.3}
{"test_system": "Vesicular stomatitis virus", "experiment": "Antiviral activity against Vesicular stomatitis virus Indiana infected in A549 cells assessed as reduction in virus titer preincubated for 24 hrs followed by viral infection and measured after 72 hrs by microscopic analysis", "assay_type": "functional, organism-based", "settings": "not given"}
{"smiles": "C=C(C)[C@@H]1CC[C@]2(COC(=O)/C=C(\\C)C(=O)N3CCOCC3)CC[C@]3(C)[C@H](CC[C@@H]4[C@@]5(C)CC[C@H](O)C(C)(C)[C@@H]5CC[C@]43C)[C@@H]12", "Activity": "inactive"}
{"smiles": "C=C(C)[C@@H]1CC[C@]2(COC(=O)CCCCCCCCCC(=O)O)CC[C@]3(C)[C@H](CC[C@@H]4[C@@]5(C)CC[C@H](O)C(C)(C)[C@@H]5CC[C@]43C)[C@@H]12", "Activity": "inactive"}
{"test_system": "Enterovirus E", "experiment": "Antiviral activity against Enterovirus E LCR-4 infected in A549 cells assessed as inhibition of viral adsorption at early stage of replication treated for 1 hr during viral infection followed by replacement with fresh medium and measured after 72 hrs by MTT assay", "assay_type": "functional, organism-based", "settings": "not given"}
{"smiles": "NC(=O)c1ncn([C@@H]2O[C@H](CO)[C@@H](O)[C@H]2O)n1", "note": "[RIBAVIRIN]", "Activity": "inactive"}
{"smiles": "C=C(C)[C@@H]1CC[C@]2(COC(=O)/C=C(\\C)C(=O)N3CCOCC3)CC[C@]3(C)[C@H](CC[C@@H]4[C@@]5(C)CC[C@H](O)C(C)(C)[C@@H]5CC[C@]43C)[C@@H]12", "Activity": "inactive"}
{"smiles": "C=C(C)[C@@H]1CC[C@]2(COC(=O)CCCCCCCCCC(=O)O)CC[C@]3(C)[C@H](CC[C@@H]4[C@@]5(C)CC[C@H](O)C(C)(C)[C@@H]5CC[C@]43C)[C@@H]12", "Activity": "inactive"}
